pKi: −log10 of the molar value.
Target: T1, human 5HT1A receptor (Homo sapiens, UniProt P08908)
T1 construct: expressed in transfected cells; host or cells: CHO cells (stably transfected)
T1 sequence (P08908 1-422): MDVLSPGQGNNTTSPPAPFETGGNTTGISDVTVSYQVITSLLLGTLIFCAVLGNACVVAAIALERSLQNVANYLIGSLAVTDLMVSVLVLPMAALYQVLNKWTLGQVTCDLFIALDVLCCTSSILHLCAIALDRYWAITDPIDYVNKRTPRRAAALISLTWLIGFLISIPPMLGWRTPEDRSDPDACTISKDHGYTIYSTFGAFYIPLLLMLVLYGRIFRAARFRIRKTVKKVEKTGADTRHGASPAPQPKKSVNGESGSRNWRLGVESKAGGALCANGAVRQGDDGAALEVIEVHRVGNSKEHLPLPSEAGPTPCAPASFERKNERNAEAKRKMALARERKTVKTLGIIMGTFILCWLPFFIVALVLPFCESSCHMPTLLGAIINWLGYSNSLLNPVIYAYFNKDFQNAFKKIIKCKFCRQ
Assay: 5-HT1A Receptor Binding Assay (displacement of [3H]8-OH-DPAT in CHO cells stably transfected with human 5HT1A receptor)
Details: displacement of 8-OH-DPAT, 1.5 nM ligand, 30 minute incubation at room temperature
Procedure: High affinity for the serotonin 5--HT1A receptor was established by testing the claimed compound's ability to displace [^3 ]8-OH-DPAT binding in CHO cells stably transfected with human 5HT1A receptor. Stably transfected CHO cells are grown in DMEM containing 10% heat inactivated FBS and non-essential amino acids. Cells are scraped off the plate, transferred to centrifuge tubes, and washed twice by centrifugation (2000 rpm for 10 min., 4° C.) in buffer (50 mM Tris pH 7.5). The resulting pellets are aliquoted and placed at -80° C. On the day of assay, the cells are thawed on ice and resuspended in buffer. The binding assay is performed in a 96 well microtiter plate in a total volume of 250 μL. Non-specific binding is determined in the presence of […] 5HT, final ligand concentration is 1.5 nM. Following a 30 minute incubation at room temperature, the reaction is terminated by the addition of ice cold buffer and rapid filtration through a GF/B filter presoaked for 30 minutes in 0.5% PEI. Compounds are initially tested in a single point assay to determine percent inhibition at 1, 0.1, and 0.01 mM, and Ki values are determined for the active compounds.

pKi | SMILES
8.33 | c1ccc(Cc2nc(C3CCCCC3)oc2CN2CCN(c3cccc4c3OCCO4)CC2)cc1 [Example 9, 1-(4-Benzyl-2-cyclohexyl-oxazol-5-ylmethyl)-4(2,3-dihydro-benzo[1,4]dioxin-5-yl)-piperazine]
8.15 | c1ccc(Cc2nc(C3CCCCC3)oc2CN2CCN(c3cccc4[nH]ccc34)CC2)cc1 [Example 10, 4-[4-(4-Benzyl-2-cyclohexyl-oxazol-5-ylmethyl)-piperazin-1-yl]-1H-indole]
9.06 | COc1ccccc1N1CCN(Cc2oc(C3CCCCC3)nc2Cc2ccccc2)CC1 [Example 11, 1-(4Benzyl-2-cyclohexyl-oxazol-5-ylmethyl)-4-(2-methoxyphenyl)-piperazine]

Reference: US6242448A, “Trisubstituted-oxazole derivatives as serotonin ligands” (American Home Products Corporation, priority 1999, dated 2001)
